According to patent US20080234266A1, “Squaric Acid Derivatives II” (priority 2005, published 2008):

Each compound was assayed against T1, CHK1 kinase (Homo sapiens, UniProt O14757) (assay: Flashplate method (CHK1), measurement of the CHK1 kinase activity). Conditions: class symbols; 'Affinity to receptors'.
T1 construct: glutathione S-transferase (GST); made in house; host or cells: Sf21 insect cells (S. frugiperda), baculovirus
T1 sequence (O14757 1-476): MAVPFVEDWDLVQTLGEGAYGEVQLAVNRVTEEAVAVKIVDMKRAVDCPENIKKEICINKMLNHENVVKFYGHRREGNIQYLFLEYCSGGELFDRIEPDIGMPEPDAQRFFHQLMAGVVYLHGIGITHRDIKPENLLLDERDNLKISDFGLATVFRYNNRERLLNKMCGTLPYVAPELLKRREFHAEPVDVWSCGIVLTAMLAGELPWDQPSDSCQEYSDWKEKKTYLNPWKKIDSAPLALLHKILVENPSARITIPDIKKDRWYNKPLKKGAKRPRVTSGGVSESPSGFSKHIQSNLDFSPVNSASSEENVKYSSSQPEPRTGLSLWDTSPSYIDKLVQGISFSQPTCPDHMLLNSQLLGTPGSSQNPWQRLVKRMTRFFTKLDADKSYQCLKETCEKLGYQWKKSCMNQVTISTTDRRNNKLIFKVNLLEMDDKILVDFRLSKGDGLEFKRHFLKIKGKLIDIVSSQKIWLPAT
Format: biochemical
Description: CHK1 kinase is expressed for the purposes of protein production in insect cells (Sf21; S. frugiperda) and subsequent purification by affinity chromatography as fusion protein with glutathione S-transferase in a baculovirus expression vector. The cultivation, infection and digestion of the cells as well as the purification of the fusion protein by column chromatography are carried out in accordance with manufacturer-oriented generic working instructions.
The kinase activity is measured using various available measurement systems. In the scintillation proximity method (Sorg et al., J. of. Biomolecular Screening, 2002, 7, 11-19), the flashplate method or the filter binding test, the radioactive phosphorylation of a protein or peptide as substrate is measured using radioactively labelled ATP (γ^32P-ATP, (γ^33P-ATP). In the case of the presence of an inhibitory compound, a reduced radioactive signal, or none at all, can be detected. Furthermore, homogeneous time-resolved fluorescence resonance energy transfer (HTR-FRET) and fluorescence polarisation (FP) technologies are useful as assay methods (Sills et al., J. of Biomolecular Screening, 2002, 191-214).
The test plates used are 384-well streptavidin-coated Flashplates Plus® from Perkin Elmer (Cat.No. SMP410A001PK). The assay plate is equilibrated with 75 μl of assay buffer per well 30 min before commencement of the experiment. The buffer is sucked out before commencement of the experiment, and the components of the kinase reaction described below are pipetted onto the plate.
CHK1 kinase, a biotinylated substrate peptide (for example CHKtide: […]), is incubated with radioactively labelled ATP in the presence and absence of test substances at 30° Celsius and a total volume of 50 μl. The reaction is terminated using 25 μl of a 0.2 M EDTA solution. After incubation for 30 min at room temperature, the supernatants are filtered off with suction, and the wells are washed three times with 100 μl of 0.9% NaCl solution each time. The measurement of the bound radioactivity is carried out by means of a scintillation measuring instrument (Topcount NXT, Perkin-Elmer).
The full value used is the inhibitor-free kinase reaction. This should be approximately in the range 3000-4000 cpm. The pharmacological zero value used is staurosporin in a final concentration of 0.1 μM. The inhibitory values (IC50) are determined using the program RS1_MTS ( ).
Kinase reaction conditions per well:
0.15 μg of CHKtide ([…])
50 μl total volume (1-fold assay buffer reaction conditions)
Solutions used: • assay buffer:
0.1 mM Titriplex VI (EGTA
10 mM magnesium acetate 0.1% mercaptoethanol
pH=7.5 (to be set using hydrochloric acid) Bovine serum albumin (final concentration 0.1%) is not added until just before use. • stop solution:
0.2 M TitriplexIII (EDTA)
• γ^33P-ATP (Perkin-Elmer) • CHK1 kinase preparations: specific activity>50 U/mg • CHKtide solution: biotinylated peptide substrate (Biotrend) stored as stock solution (concentration 0.15 mg/ml).
For O=c1c(Nc2ccc3[nH]cnc3c2)c(N2CCc3ccc(O)cc3C2)c1=O [Compound A82, 3-(1H-benzimidazol-5-ylamino)-4-(7-hydroxy-3,4-dihydro-1H-isoquinolin-2-yl)cyclobut-3-ene-1,2-dione], the IC50 was > 1000 nM.
With COc1cccc([C@H](C)Nc2c(Nc3ccc4[nH]cnc4c3)c(=O)c2=O)c1 [Compound A83, 3-(1H-benzimidazol-5-ylamino)-4-[(S)-1-(3-methoxyphenyl)ethylamino]cyclobut-3-ene-1,2-dione] the IC50 was > 1000 nM.
O=c1c(NCc2ccc(F)c(O)c2)c(Nc2ccc3[nH]cnc3c2)c1=O [Compound A84, 3-(1H-benzimidazol-5-ylamino)-4-(4-fluoro-3-hydroxybenzylamino)cyclobut-3-ene-1,2-dione] was tested, and the IC50 was < 1000 nM.
With COc1ccc(F)c(CNc2c(Nc3ccc4[nH]cnc4c3)c(=O)c2=O)c1 [Compound A85, 3-(1H-benzimidazol-5-ylamino)-4-(2-fluoro-5-methoxybenzylamino)cyclobut-3-ene-1,2-dione] the IC50 was > 1000 nM.
O=c1c(NCc2cccc(O)c2Cl)c(Nc2ccc3[nH]cnc3c2)c1=O [Compound A86, 3-(1H-benzimidazol-5-ylamino)-4-(2-chloro-3-hydroxybenzylamino)cyclobut-3-ene-1,2-dione] was tested, and the IC50 was > 1000 nM.
With O=c1c(NCc2ccc(O)c(O)c2)c(Nc2ccc3[nH]cnc3c2)c1=O [Compound A87, 3-(1H-benzimidazol-5-ylamino)-4-(3,4-di-hydroxybenzylamino)cyclobut-3-ene-1,2-dione] the IC50 was < 1000 nM.
With O=c1c(NCc2ccc3[nH]cnc3c2)c(Nc2ccc3[nH]cnc3c2)c1=O [Compound A88, 3-(1H-benzimidazol-5-ylamino)-4-[(1H-benzimidazol-5-ylmethyl)amino]cyclobut-3-ene-1,2-dione] the IC50 was > 1000 nM.
For Cc1nc2cc(Nc3c(NCc4cccc(O)c4)c(=O)c3=O)ccc2[nH]1 [Compound A89, 3-(3-hydroxybenzylamino)-4-(2-methyl-1H-benzimidazol-5-ylamino)cyclobut-3-ene-1,2-dione], the IC50 was > 1000 nM.
In the case of O=c1c(NCc2ccc3[nH]c(C(F)(F)F)nc3c2)c(Nc2ccc3[nH]cnc3c2)c1=O [Compound A90, 3-(1H-benzimidazol-5-ylamino)-4-[(2-trifluoromethyl-1H-benzimidazol-5-ylmethyl)-amino]cyclobut-3-ene-1,2-dione], the IC50 is reported as > 1000 nM.
For COc1ccc(CNc2c(Nc3ccc4[nH]cnc4c3)c(=O)c2=O)cc1O [Compound A91, 3-(1H-benzimidazol-5-ylamino)-4-(3-hydroxy-4-methoxybenzylamino)cyclobut-3-ene-1,2-dione], the IC50 was > 1000 nM.
For Cc1ccc(CNc2c(Nc3ccc4[nH]cnc4c3)c(=O)c2=O)cc1O [Compound A92, 3-(1H-benzimidazol-5-ylamino)-4-(3-hydroxy-4-methylbenzylamino)cyclobut-3-ene-1,2-dione], the IC50 was > 1000 nM.
For CCOc1ccc(O)cc1CNc1c(Nc2ccc3[nH]cnc3c2)c(=O)c1=O [Compound A93, 3-(1H-benzimidazol-5-ylamino)-4-(2-ethoxy-5-hydroxybenzylamino)cyclobut-3-ene-1,2-dione], the IC50 was > 1000 nM.
O=c1c(NCc2cc(O)cc(O)c2)c(Nc2ccc3[nH]cnc3c2)c1=O [Compound A94, 3-(1H-benzimidazol-5-ylamino)-4-(3,5-di-hydroxybenzylamino)cyclobut-3-ene-1,2-dione] was tested, and the IC50 was < 1000 nM.
NC(=O)c1cccc(CNc2c(Nc3ccc4[nH]cnc4c3)c(=O)c2=O)c1 [Compound A95, 3-(1H-benzimidazol-5-ylamino)-4-(3-amino-carbonylbenzylamino)cyclobut-3-ene-1,2-dione] was tested, and the IC50 was > 1000 nM.
CN(C)Cc1c[nH]c2cc(CNc3c(Nc4ccc5[nH]cnc5c4)c(=O)c3=O)ccc12 [Compound A96, 3-(1H-benzimidazol-5-ylamino)-4-[(3-dimethylaminomethyl-1H-indol-6-ylmethyl)-amino]cyclobut-3-ene-1,2-dione] was tested, and the IC50 was > 1000 nM.
